Measurements: patent US20050042714A1, “Glycoconjugates of sialic acid derivates, methods for their production and use thereof” (priority 2001, published 2005)

Legend:
HL60-I cells = assay: metabolic complementation assay: lectin staining (VVA, LFA, TLM) of analogue-treated cells by flow cytometry; assay type: cell-based, human; details: 5 mM, 24 h
Description: Medium supplementation with some synthetic sialic acid analogues restores cell surface sialylation in hyposialylated HL60-I cells. Cells were cultivated in the presence of indicated synthetic sialic acid analogue (5 mM) for 24 h and stained with either directly fluorochrome-coupled lectins (VVA, LFA) or biotin-coupled lectin (TLM) and streptavidin-FITC and analyzed by flow cytometry. Values are given as “relative factor of change” (RFC) of the “mean fluorescence intensity” (MFI) of sialic acid-treated cells relative to untreated cells. The bars represent arithmetic means±SD (n^34) of one (x) or ≧two experiments.
To test whether cells can incorporate synthetic sialic acid analogues from the culture medium, a metabolic complementation assay was performed on endogenously hyposialylated, UDP-GlcNAc-2-epimerase-deficient HL60-I cells.
Cells were cultivated for 24 h in the presence of one of 16 different synthetic sialic acid analogues, carrying distinct C5 or C9 modifications (FIG. 1), and subsequently, changes in cell surface sialylation were assessed by flow cytometry using three fluorochrome-conjugated sialic acid-sensitive lectins. Vicia villosa agglutinin (VVA) detects GalNAc residues, and its binding sites can be masked by the addition of terminal sialic acid residues.
In sugar supplementation assays, cells seeded at 5×10^5 cells/ml in culture medium buffered with 40 mM HEPES (pH 7.2) were cultivated for 24 h in the presence or absence of 5 mM sialic acids (stocks of 100 mM dissolved in H2O, stored at 4° C.).
Lyophilized FITC-conjugated lectins Vicia villosa (VVA) was obtained from Sigma, dissolved in H2O (1 mg/ml), aliquoted and stored at −20° C. according to the manufacturer's instructions. FITC-conjugated Limax flavus agglutinin (LFA) was from EY Laboratories (San Manteo, Calif., USA) and biotin-coupled Tritrichomonas mobilensis agglutinin (TLM) from Calbiochem. Lectin staining procedure and fluorescence-activated cell scanning on a Becton Dickinson FACScan cytometer using Cellquest II software were carried out as described (Keppler, O. T., Molden-hauer, G., Oppenländer, M., Schwartz-Albiez, R., Berger, E. G., Funderud, S., and Pawlita, M. (1992) Eur J Immunol 22(11), 2777-81). Briefly, cells (3×10^5) were washed twice in cold PBS and then incubated in 100 μl PBS/0.05% NaN3, containing either fluorochrome-conjugated lectins VVA (50 μg/ml), LFA (20 μg/ml), or biotinylated TLM (20 μg/ml) for 45 min on ice in the dark. For biotinylated TLM a secondary incubation step with steptavidin-FITC (20 μg/ml) (Sigma) for 30 min on ice in the dark is required. After washing with PBS, cells were resuspended in 300 μl PBS and analyzed by flow cytometry.

[1] = test system: B-lymphotropic papovavirus (LPV) in BJA-B K20 cells; assay: LPV infection of analogue-treated hyposialylated cells (VP1 ELISA, T-antigen immunofluorescence); assay type: cell-based, human; details: BJA-B K20 cells (statement also covers K88 cells)
Description: Changes in permissivity for the sialic acid-dependent B-lymphotropic papovavirus (LPV) in hyposialylated (K20) and normally sialylated (K88) BJA-B cells after treatment with sialic acid analogues. Cells were treated with analogues or NeuAc for 3d. 50 h post LPV inoculation the LPV infection was quantified (A) by detecting the amount of LPV VP1 in cell lysates relative to the total protein content by ELISA and (B) by indirect immunofluorescence microscopy as percentage of LPV T-antigen-positive BJA-B K20 cells. A, values are given as arithmetic means±SD of three independent experiments. B, representatives of three experiments are shown. DAPI-staining (left) indicates the total amount of cells in the section, on the right LPV T-antigen positive cells are shown with the average percentage given beside. […]
BJA-B subclones were infected with the B-lymphotropic papovavirus (LPV) as described (Keppler, O. T., Herrmann, M., Oppenländer, M., Meschede, W., and Pawlita, M. (1994) J Virol 68(11), 6933-9). […] LPV infection was quantified by indirect immunofluorescence microscopy as percentage of LPV T-antigen positive cells and the amount of LPV VP1 in cell lysates was determined by ELISA relative to the total protein extracted.

CC(=O)N[C@H]1[C@H]([C@H](O)[C@@H](C)O)OC(O)(C(=O)O)C[C@@H]1O (stereo partly shown) [analogue a, 5-N-acetyl-9-deoxy-neuraminic acid]
effect on LFA binding (HL60-I cells): increased binding of LFA | effect on TLM binding (HL60-I cells): increased binding | effect on VVA binding (HL60-I cells; decrease = masking of GalNAc by sialic acid): significantly decreased VVA-binding | LPV-permissivity [1]: to a lesser extent
